Values quoted from earlier work as cited in patent US20100331420A1, “Combination Therapies for the Treatment of Obesity” (priority 2009, published 2010).

Details: published studies of each weight loss medication

CC(C)CC(N(C)C)C1(c2ccc(Cl)cc2)CCC1 (stereo not drawn) [sibutramine]
weight loss of body weight for drug compared with placebo: about 5%

CCCCCCCCCCC[C@@H](C[C@@H]1OC(=O)[C@H]1CCCCCC)OC(=O)[C@H](CC(C)C)NC=O [orlistat]
weight loss of body weight for drug compared with placebo: about 5%

CCN[C@@H](C)Cc1cccc(C(F)(F)F)c1 [dexfenfluramine]
weight loss of body weight for drug compared with placebo: about 5%
